Drawing on US12565490B2, “Inhibitors of Receptor Interacting Protein Kinase I for the treatment of disease” (Board of Regents, The University of Texas System, priority 2020, dated 2026), this text covers IC50 for 20 compounds.

pIC50: −log10 of the molar value.

This assay deals with human monocytic cell line U937. In words: Human U937 cellular necroptosis assay. Type of assay: cell-based. The following applies: U-937; U937 cells stimulated with 25 ng/mL human TNFalpha and 25 μM z-VAD-FMK; 22 hr; viability by Cell Titer-Glo 2.0; read-out: hU937 IC50. The procedure, abridged: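 U937 cells (5000/well) driven to necroptosis by 25 ng/mL human TNFalpha plus 25 μM z-VAD-FMK alongside 1:3-diluted compounds, 22 hr at 37° C, 5% CO2. Viability by CellTiter-Glo luminescence; IC50 from four-parameter logistic fit.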
(In general: Cellular ATP, detected with luciferase, serves as a proxy for viable cell number.)
Regarding `CN1C(=O)[C@@H](NC(=O)c2ncc(Cl)c(-c3cncc(F)c3)n2)COc2cc(Cl)cnc21` [Example 109, (S)-5-chloro-N-(8-chloro-5-methyl-4-oxo-2,3,4,5-tetrahydropyrido[3,2-b]-[1,4]oxazepin-3-yl)-4-(5-fluoropyridin-3-yl)pyrimidine-2-carboxamide], the pIC50 (commonly −log10 of the IC50, conventionally taken in molar units) is 7.23.

For the compound `Cc1ncc(-c2nc(C(=O)N[C@H]3COc4cc(Cl)cnc4N(C)C3=O)ncc2Cl)cn1` [Example 110, (S)-5-chloro-N-(8-chloro-5-methyl-4-oxo-2,3,4,5-tetrahydropyrido[3,2-b]-[1,4]oxazepin-3-yl)-2′-methyl-[4,5′-bipyrimidine]-2-carboxamide], the pIC50 is 5.45. For the compound `CN1C(=O)[C@@H](NC(=O)c2ncc(Cl)c(-c3cncnc3)n2)COc2cc(Cl)cnc21` [Example 111, (S)-5-chloro-N-(8-chloro-5-methyl-4-oxo-2,3,4,5-tetrahydropyrido[3,2-b]-[1,4]oxazepin-3-yl)-[4,5′-bipyrimidine]-2-carboxamide], the negative-log IC50 (pIC50) was 6.31. In the case of `CN1C(=O)[C@@H](NC(=O)c2ncc(Cl)c(-c3cnccn3)n2)COc2cc(Cl)cnc21` [Example 112, (S)-5-chloro-N-(8-chloro-5-methyl-4-oxo-2,3,4,5-tetrahydropyrido[3,2-b]-[1,4]oxazepin-3-yl)-4-(pyrazin-2-yl)pyrimidine-2-carboxamide], the pIC50 was 7.03. For the compound `CN1C(=O)[C@@H](NC(=O)c2ncc(Cl)c(-c3cccc4[nH]cnc34)n2)COc2cc(Cl)cnc21` [Example 113, (S)-4-(1H-benzo[d]imidazol-4-yl)-5-chloro-N-(8-chloro-5-methyl-4-oxo-2,3,4,5-tetrahydropyrido[3,2-b]-[1,4]oxazepin-3-yl)pyrimidine-2-carboxamide], the negative-log IC50 (pIC50) is 5.11. With `CN1C(=O)[C@@H](NC(=O)c2ncc(Cl)c(-c3cccc4[nH]ncc34)n2)COc2cc(Cl)cnc21` [Example 114, (S)-5-chloro-N-(8-chloro-5-methyl-4-oxo-2,3,4,5-tetrahydropyrido[3,2-b]-[1,4]oxazepin-3-yl)-4-(1H-indazol-4-yl)pyrimidine-2-carboxamide] the figure was 7.20. As to `CN1C(=O)[C@@H](NC(=O)c2ncc(Cl)c(-c3ccn4cnnc4c3)n2)COc2cc(Cl)cnc21` [Example 115, (S)-4-([1,2,4]triazolo[4,3-a]pyridin-7-yl)-5-chloro-N-(8-chloro-5-methyl-4-oxo-2,3,4,5-tetrahydropyrido[3,2-b]-[1,4]oxazepin-3-yl)pyrimidine-2-carboxamide], the negative-log IC50 (pIC50) is 6.48.

`Cc1cnc(C(=O)N[C@H]2COc3cc(Cl)cnc3N(C)C2=O)nc1-c1ccccc1F` [Example 116, (S)-N-(8-chloro-5-methyl-4-oxo-2,3,4,5-tetrahydro-pyrido[3,2-b][1,4]oxazepin-3-yl)-4-(2-fluorophenyl)-5-methylpyrimidine-2-carboxamide]: the pIC50 was 8.07.

Consider `Cc1cnc(C(=O)N[C@H]2COc3cc(Cl)cnc3N(C)C2=O)nc1-c1cccc(F)c1F` [Example 117, (S)-N-(8-chloro-5-methyl-4-oxo-2,3,4,5-tetrahydro-pyrido[3,2-b][1,4]oxazepin-3-yl)-4-(2,3-difluorophenyl)-5-methylpyrimidine-2-carboxamide], for which the negative-log IC50 (pIC50) was 7.85. With `Cc1cnc(C(=O)N[C@H]2COc3cc(Cl)cnc3N(C)C2=O)nc1-c1ccncc1F` [Example 120, (S)-N-(8-chloro-5-methyl-4-oxo-2,3,4,5-tetrahydro-pyrido[3,2-b][1,4]oxazepin-3-yl)-4-(3-fluoropyridin-4-yl)-5-methylpyrimidine-2-carboxamide] the figure was 6.87. For `Cc1cnc(C(=O)N[C@H]2COc3cc(Cl)cnc3N(C)C2=O)nc1-c1ccc(F)cn1` [Example 121, (S)-N-(8-chloro-5-methyl-4-oxo-2,3,4,5-tetrahydro-pyrido[3,2-b][1,4]oxazepin-3-yl)-4-(5-fluoropyridin-2-yl)-5-methylpyrimidine-2-carboxamide], the pIC50 is 7.52. As to `Cc1cnc(C(=O)N[C@H]2COc3cc(Cl)cnc3N(C)C2=O)nc1-c1cncnc1` [Example 122, (S)-N-(8-chloro-5-methyl-4-oxo-2,3,4,5-tetrahydro-pyrido[3,2-b][1,4]oxazepin-3-yl)-5-methyl-[4,5′-bipyrimidine]-2-carboxamide], the negative logarithm of the IC50 (pIC50) is 6.84. For `Cc1cnc(C(=O)N[C@H]2COc3cc(Cl)cnc3N(C)C2=O)nc1-c1cnccn1` [Example 123, (S)-N-(8-chloro-5-methyl-4-oxo-2,3,4,5-tetrahydro-pyrido[3,2-b][1,4]oxazepin-3-yl)-5-methyl-4-(pyrazin-2-yl)-pyrimidine-2-carboxamide], the negative logarithm of the IC50 (pIC50) is 7.31. With `Cc1cnc(C(=O)N[C@H]2COc3cc(Cl)cnc3N(C)C2=O)nc1-c1ccc2nccn2c1` [Example 124, (S)-N-(8-chloro-5-methyl-4-oxo-2,3,4,5-tetrahydropyrido[3,2-b][1,4]oxazepin-3-yl)-4-(imidazo[1,2-a]pyridin-6-yl)-5-methylpyrimidine-2-carboxamide] the figure was 6.78; with `COc1cnc(C(=O)N[C@H]2COc3cc(Cl)cnc3N(C)C2=O)nc1-c1ccccc1` [Example 125, (S)-N-(8-chloro-5-methyl-4-oxo-2,3,4,5-tetrahydro-pyrido[3,2-b][1,4]oxazepin-3-yl)-5-methoxy-4-phenylpyrimidine-2-carboxamide], 6.89; with `CN1C(=O)[C@@H](NC(=O)c2ncc(CO)c(-c3ccccc3)n2)COc2cc(Cl)cnc21` [Example 126, (S)-N-(8-chloro-5-methyl-4-oxo-2,3,4,5-tetrahydro-pyrido[3,2-b][1,4]oxazepin-3-yl)-5-(hydroxymethyl)-4-phenylpyrimidine-2-carboxamide], 7.52. As to `CN1C(=O)[C@@H](NC(=O)c2ncc(S(C)(=N)=O)c(-c3ccccc3)n2)COc2cc(Cl)cnc21` (stereo partly drawn) [Example 127, N-((S)-8-chloro-5-methyl-4-oxo-2,3,4,5-tetrahydro-pyrido[3,2-b][1,4]oxazepin-3-yl)-5-(S-methylsulfonimidoyl)-4-phenylpyrimidine-2-carboxamide], the pIC50 was 5.40.

With `CN1C(=O)[C@@H](NC(=O)c2ncc(Cl)c(-c3cccc(F)c3)n2)COc2cc(C#N)ccc21` [Example 128, (S)-5-chloro-N-(8-cyano-5-methyl-4-oxo-2,3,4,5-tetrahydrobenzo[b]-[1,4]oxazepin-3-yl)-4-(3-fluorophenyl)pyrimidine-2-carboxamide], the negative-log IC50 (pIC50) was 7.79.

For the compound `CN1C(=O)[C@@H](NC(=O)c2ncc(Cl)c(-c3ccc(F)cc3)n2)COc2cc(C#N)ccc21` [Example 129, (S)-5-chloro-N-(8-cyano-5-methyl-4-oxo-2,3,4,5-tetrahydrobenzo[b]-[1,4]oxazepin-3-yl)-4-(4-fluorophenyl)pyrimidine-2-carboxamide], the pIC50 was 7.86. With `CN1C(=O)[C@@H](NC(=O)c2ncc(Cl)c(-c3cc(F)ccc3F)n2)COc2cc(C#N)ccc21` [Example 130, (S)-5-chloro-N-(8-cyano-5-methyl-4-oxo-2,3,4,5-tetrahydrobenzo[b]-[1,4]oxazepin-3-yl)-4-(2,5-difluorophenyl)pyrimidine-2-carboxamide] the figure was 7.79.
